Test results as given in patent US20170150719A1, “FUNGICIDAL PYRAZOLES AND THEIR MIXTURES” (E I DU PONT DE NEMOURS AND COMPANY, priority 2010, published 2017).

Legend:
[1] = tested on: Alternaria solani; experiment: Test B: tomato early blight, preventive spray on tomato seedlings, visual disease rating; settings: tomato early blight; 100 = 100% disease control, 0 = no disease control relative to the controls
[2] = tested on: Botrytis cinerea; experiment: Test A: tomato Botrytis, preventive spray on tomato seedlings, visual disease rating; settings: tomato Botrytis; 100 = 100% disease control, 0 = no disease control relative to the controls
[3] = tested on: Septoria nodorum; experiment: Test E: Septoria glume blotch, preventive spray on wheat seedlings, visual disease rating; settings: Septoria glume blotch; 100 = 100% disease control, 0 = no disease control relative to the controls
[4] = tested on: Rhizoctonia solani; experiment: Test D: turf brown patch, preventive spray on creeping bent grass seedlings, disease rating; settings: 100 = 100% disease control, 0 = no disease control relative to the controls
Protocol: (§1) General protocol for preparing test suspensions for Tests A-I: the test compounds were first dissolved in acetone in an amount equal to 3% of the final volume and then suspended at the desired concentration (in ppm) in acetone and purified water (50/50 mix by volume) containing 250 ppm of the surfactant Trem® 014 (polyhydric alcohol esters). The resulting test suspensions were then used in Tests A-I. Each test was conducted in triplicate, and the results were averaged. Spraying a 200 ppm test suspension to the point of run-off on the test plants was the equivalent of a rate of about 800 g/ha. Unless otherwise indicated, the rating values indicate a 200 ppm test suspension was used. (An asterisk “*” next to the rating value indicates a 40 ppm test suspension was used.)
The test suspension was sprayed to the point of run-off on creeping bent grass (Agrostis sp.) seedlings. The following day the seedlings were inoculated with a bran and mycelial slurry of Rhizoctonia solani (the causal agent of turf brown patch) and incubated in a saturated atmosphere at 27° C. for 48 h, and then moved to a growth chamber at 27° C. for 3 days, after which time disease ratings were made.

[5] = tested on: Blumeria graminis f. sp. tritici; experiment: Test I: wheat powdery mildew, preventive spray on wheat seedlings, visual disease rating; settings: wheat powdery mildew; 100 = 100% disease control, 0 = no disease control relative to the controls
[6] = tested on: Phytophthora infestans; experiment: whole plant or invertebrate; assay type: in vivo; settings: tomato late blight; 100 = 100% disease control, 0 = no disease control relative to the controls
[7] = tested on: Puccinia recondita f. sp. tritici; experiment: Test H: wheat leaf rust, preventive spray on wheat seedlings, visual disease rating; settings: wheat leaf rust, sprayed the day before inoculation; 100 = 100% disease control, 0 = no disease control
Protocol: as §1
The test suspension was sprayed to the point of run-off on wheat seedlings. The following day the seedlings were inoculated with a spore suspension of Puccinia recondita f. sp. tritici (the causal agent of wheat leaf rust) and incubated in a saturated atmosphere at 20° C. for 24 h, and then moved to a growth chamber at 20° C. for 6 days, after which time visual disease ratings were made.

[8] = tested on: Septoria tritici; experiment: Test F: wheat leaf blotch, preventive spray on wheat seedlings, visual disease rating; assay type: in vivo; settings: 100 = 100% disease control, 0 = no disease control relative to the controls
From the text: A hyphen (-) indicates no test results.

Cc1nn(C)c(Nc2ccc(F)cc2F)c1-c1ccc(F)cc1Cl [compound 2]
Test B rating (disease control) [1]: 100%
Test A rating (disease control) [2]: 99%
Test E rating (disease control) [3]: 64%
Test D rating (disease control) [4]: 98%
Test I rating (disease control) [5]: 99%
Test C rating (disease control) [6]: 0%
Test H rating (disease control) [7]: 100%
Test F rating (disease control) [8]: 100%
